“Also recorded” adds a separate entry of the source.

A short description of series [1]: Local concentrations of penicillin in saliva after penicillin G potassium 50 mg tablet (Example IX). The series is classed as in vivo, human. The method, then: Five healthy adult volunteers, three men and two women, were selected for this study.
On the day of study, two hours after breakfast, the volunteers were given a single tablet of the drug, placed in the right oral sulcus between the lower gum and the buccal mucosa to be dissolved in a minimum amount of saliva in about six (6) minutes. This loculated pocket of saliva was not to be swallowed and was not to be further diluted by saliva from other parts of the mouth for one hour. At 6 minutes, 20 minutes, 40 minutes and 60 minutes after drug application, an aliquot of 0.01 ml was aspirated from this pocket of saliva and added into a test tube containing 10 ml of nutrient broth to give a 1,000 times dilution. After being mixed well, aliquots of the mixtures of saliva sample and nutrient broth were forced to pass through bacterial filters into sterile test tubes. Thcn 0.8 ml of each 1:1,000 diluted filtrate was pipetted and added to 3.2 ml of nutrient broth to make an additional 5 times dilution in a volume of 4 ml. Two ml was pipetted from the latter to make a serial double dilution of saliva sample in 2 ml of nutrient broth, as described above under a, in 12 test tubes. The dilution factor for the saliva sample in test No. 1 was 5,000 and […] progressively to 1:10,240,000 in test tube No.12.
Each filtered mixture in test tube was inoculated with 0.1 ml of a 1:1,000 dilution of a 12 hour broth culture of Staphyloccus aureus ATCC 29213.
A row of 6 test tubes each containing 2 ml of nutrient broth with decreasing concentrations of penicillin G potassium, USP Reference Standard 502508, at 6.2, 3.1, 1.5, 0.75, 0.32, and 0.16 mcg/ml, using a serial double dilution method described in a., was prepared and similarly inoculated with 0.1 ml broth culture of Staphyloccus aureus ATCC 29213 as the standard.
(§1) All test tubes were incubated at 37° C. for 18 hours and observed for bacterial growth against an inoculated broth containing neither antibiotic nor saliva samples.
The test tube of highest number with the highest dilution factor of saliva in nutrient broth in which no bacterial growth was observed was interpreted as containing an equivalent of penicillin G potassium at 0.75 mcg/ml. Using the dilution factors, it was calculated that, after topical application of the drug product, the concentrations of penicillin G potassium in the saliva at the site of medication within the first hour were as follows.

For series [2], the system named is Staphylococcus aureus ATCC 29213. Description: MIC for standard strain used in saliva antibiotic assay (Examples VII-IX). The following applies: Staphylococcus aureus, ATCC29213; nutrient broth, 37° C., 18 hours. The series is classed as cell-based. As to the method:
Each filtered mixture in test tube was inoculated with 0.1 ml of a 1:1,000 dilution of a 12 hour broth culture of Staphylococcus aureus ATCC 29213.
A row of 6 test tubes each containing 2 ml of nutrient broth with decreasing concentrations of penicillin G potassium from 6.2 to 0.16 mcg/ml, using a serial double dilution method described in a., was prepared and similarly inoculated with 0.1 ml broth culture of Staphylococcus aureus ATCC 29213 as the standard.
as §1
In this study, the drug powder was suspended in one teaspoonful of water and swallowed by the test subjects two hours after breakfast, followed by drinking an 8 Oz. glass of water. The test subjects refrained from drinking or eating for the next three hours. Six samples of saliva were collected from each subject at 30-minute intervals in succession in the next three hours. An aliquot of 0.2 ml from each saliva sample was transferred to 3.8 ml of nutrient broth. The mixture of the latter was forced to pass a bacterial filter. Two (2) ml of the bacteria-free filtrate was pipetted out into a sterile test tube and inoculated with 0.1 ml of a 1:1,000 dilution of a 12 hours broth culture of Staphylococcus aureus ATCC 29213 and incubated at 37° C. for 18 hours. […]

A further series concerns bacteria in human saliva. Put plainly: Inhibition of bacterial growth in human saliva in vitro (Example IV). The series is classed as cell-based. The following applies: for bacterial growth from treated saliva: 1 h, aerobic blood agar. As to the method:
For this study, five healthy adult volunteers, three men and two women, were asked to refrain from drinking and eating for two hours after breakfast. At the end of two hours, about five (5) ml of saliva was obtained from the oral cavity of each volunteer. Aliquots of 0.1 ml of saliva were pipetted immediately from each saliva sample and spread over the surface of two 5% sheep blood agar plates with a sterile plastic loop. One inoculated blood agar plate was incubated in an aerobic atmosphere containing 5% CO2, and the other anaerobically at 37° C. for 18 hours, as untreated controls.
Aliquots of 0.2 ml of the saliva from each volunteer's sample were pipetted into sterile test tubes, and labeled from No. 2 to No. 13. Five equal doses of dry powder of the USP grade penicillin G potassium salt, 200 mg each, were weighed and put into five sterile test tubes, all labeled No. 1. The dry powder of antibiotic was dissolved in 0.4 ml saliva obtained from each of the five volunteers to constitute an initial concentration of antibiotic concentration of […] in saliva. An aliquot of 0.2 ml of the saliva antibiotic solution was pipetted from tube No. 1 into tube No. 2. After having been thoroughly mixed, 0.2 ml of the content in tube No. 2 was pipetted to tube No. 3, and so forth continuously in succession to make a serial double dilution of penicillin G potassium solutions in saliva through tube No. 13. Finally, the test tubes contained different concentrations of penicillin G potassium in the saliva of five volunteers, as follows.
The mixtures of antibiotic and saliva in the test tubes were incubated at 37° C. One hour later, an aliquot of 0.1 ml was pipetted from the content of each tube, first dropped in the center of a blood agar plate and then spread to the periphery of the plate surface. The plates were incubated aerobically at 37° C. with 5% carbon dioxide in the atmosphere for 18 hours and were examined for bacterial growth.

Series [3] deals with bacteria in saliva of healthy volunteers. Put plainly: Inhibition of bacterial growth in the saliva in vivo (Example V). The settings on record: for bacterial colonies from saliva after topical medication: 1 hour, 0.1 ml saliva. The method, then:
Five healthy adult volunteers, three men and two women, were asked to refrain from drinking or eating for two hours after breakfast. At the end of two hours, an aliquot of 0.1 ml of saliva was pipetted from the mouth of each volunteer and spread over the surface of a sheep blood agar plate with a sterile plastic loop. The inoculated blood agar plate was incubated in an aerobic atmosphere containing 5% CO2 as pre-medication control. Then 100 mg, 50 mg, 20 mg, 10 mg and 2 mg of penicillin G potassium dry powder, USP grade, were placed in the right buccal pouch with a spatula between the cheek and the lower gum of each volunteer, respectively. The volunteers were asked to retain the dissolved penicillin powder at the site of medication as concentrated as possible, not to be diluted by saliva from other parts of the mouth for one hour.
At the end of one hour, 0.1 ml of saliva from each volunteer was pipetted from the right buccal pouch where the medication was placed, and inoculated and spread onto the surface of a sheep blood agar plate. The inoculum was spread with a sterile plastic loop.

In series [1] (human, saliva, topical or ocular, 50 mg tablet, 6 min), `CC1(C)S[C@@H]2[C@H](NC(=O)Cc3ccccc3)C(=O)N2[C@H]1C(=O)O` [penicillin G potassium] had a concentration at 0.1 h of 240000 to 480000 µg/mL. The molecule further gave a concentration at 20 min in series [1] (human, saliva, topical or ocular, 50 mg tablet, 20 min) of 120000 to 240000 µg/mL. Also, the concentration at 40 min in series [1] (human, saliva, topical or ocular, 50 mg tablet, 40 min) lay within 30000 to 60000 µg/mL. In series [1] (human, saliva, topical or ocular, 50 mg tablet, 60 min), this molecule yielded a concentration at 1 h of 7500 to 15000 µg/mL. In addition, in series [1] (tablet of 50 mg penicillin G potassium), the “initial local concentration in saliva” value is reported as “about 480 mg/ml”. Also, in series [1] (tablet of 50 mg penicillin G potassium, 60 min), the “local concentration in saliva in one hour” value lay within 7.5 to 15 mg/mL. Besides, the MIC in series [2] was 0.75 µg/mL; with bacteria in human saliva (Homo sapiens, read-out: concentration sufficient to kill or inhibit practically all salivary bacteria), 1000 to 2000 µg/mL. Also, the “bacterial growth from treated saliva” value is reported as “Scattered bacterial colonies began to appear; also recorded: the inhibition is not complete; also recorded: A few surviving or uninhibited bacteria grew into colonies” in the series with bacteria in human saliva (1 mg/ml) and “No bacterial colonies were visible; also recorded: practically inhibits the growth of all of the salivary bacteria; also recorded: either destroyed or totally inhibited” in the series with bacteria in human saliva (2 mg/ml or above). In addition, the “bacterial colonies from saliva after topical medication” value in series [3] (2 mg powder) is reported as “a few isolated bacterial colonies; also recorded: partial inhibition of growth”; in series [3] (10 mg powder), “no bacterial colonies”; in series [3] (20 mg powder), “no bacterial colonies”; in series [3] (50 mg powder) it was “no bacterial colonies”; in series [3] (100 mg powder), “no bacterial colonies”. In series [3] (powder, one-hour medication), the “dose required for total cessation of bacterial growth in small pocket of saliva” value is listed as “at least 10 mg”.

(Values after US6248718A, “Lesion-directed dry dosage forms of antibacterial agents for the treatment of acute mucosal infections of the oral cavity” (priority 1999, dated 2001).)
